Measured values from ChEMBL document CHEMBL1126756, “Studies on neurokinin antagonists. 3. Design and structure-activity relationships of new branched tripeptides N alpha-(substituted L-aspartyl, L-ornithyl, or L-lysyl)-N-methyl-N-(phenylmethyl)-L-phenylalaninamides as substance P antagonists” (J Med Chem, 1993).
Values belong to the compound of their own block, whether it stands above or below them. Calls of active or inactive are those of the source. No cut-off for these calls is given here.

Assays:
[1] = target: Substance-P receptor (Cavia porcellus) (UniProt P30547); test: Tested for percent inhibition against [3H]SP (substance P) binding against NK1 receptor relative to compound 5 (100); conditions: concentration not given here
[2] = target: Substance-P receptor (Cavia porcellus) (UniProt P30547); test: Tested for percent inhibition against [3H]SP (substance P) binding against NK1 receptor relative to compound 7 at 100 ng/mL; No inhibition
[3] = target: Substance-P receptor (Cavia porcellus) (UniProt P30547); test: Tested for percent inhibition against [3H]-SP (substance P) binding against NK1 receptor; conditions: concentration not given here
Substance-P receptor = Substance-P receptor (Cavia porcellus, UniProt P30547); test: Tested for inhibition against [3H]-SP (substance P) (1 nM) binding to NK1 receptor in guinea pig lung membranes; assay type: cell membranes, Membrane
[4] = target: Substance-P receptor (Cavia porcellus) (UniProt P30547); test: Tested for percent inhibition against [3H]-SP (substance P) binding against NK1 receptor relative to compound 5 at 100 ng/mL; No inhibition
[5] = target: Substance-P receptor (Cavia porcellus) (UniProt P30547); test: Percent inhibition of [3H]-SP (substance P) binding to NK1 receptor relative to compound 7 (100); parameters: concentration or dose not given beside the values; conditions: concentration not given here
[6] = target: Substance-P receptor (Cavia porcellus) (UniProt P30547); test: Tested for percent inhibition against [3H]SP (substance P) binding against NK1 receptor relative to compound; conditions: concentration not given here

Chain of Substance-P receptor (Cavia porcellus) (P30547 whole entry): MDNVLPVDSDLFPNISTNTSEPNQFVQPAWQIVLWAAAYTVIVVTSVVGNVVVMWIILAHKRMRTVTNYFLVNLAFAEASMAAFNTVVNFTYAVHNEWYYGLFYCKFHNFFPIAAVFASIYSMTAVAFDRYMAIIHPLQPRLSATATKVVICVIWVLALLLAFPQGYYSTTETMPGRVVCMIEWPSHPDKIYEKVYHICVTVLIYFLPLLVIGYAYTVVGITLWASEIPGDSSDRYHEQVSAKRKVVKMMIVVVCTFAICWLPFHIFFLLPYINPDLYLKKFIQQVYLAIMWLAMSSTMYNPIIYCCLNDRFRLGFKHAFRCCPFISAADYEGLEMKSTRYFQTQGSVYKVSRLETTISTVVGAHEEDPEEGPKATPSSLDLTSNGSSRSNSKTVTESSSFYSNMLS
Chain of Substance-P receptor (P30547 whole entry): as above

Structure (SMILES): CC(=O)N[C@H](C(=O)NCCCC[C@H](NC(=O)c1c[nH]c2ccccc12)C(=O)N[C@H](Cc1ccccc1)C(=O)N(C)Cc1ccccc1)[C@@H](C)O
inhibition [3]: 100%
IC50 (Substance-P receptor): 13 nM

Structure (SMILES): CC(=O)NC(CO)C(=O)NCCCCC(NC(=O)c1c[nH]c2ccccc12)C(=O)N[C@H](Cc1ccccc1)C(=O)N(C)Cc1ccccc1 (stereo partly drawn)
inhibition [5]: 136%

Structure (SMILES): CN(Cc1ccccc1)C(=O)[C@@H](Cc1ccccc1)NC(=O)C(CC(=O)NC(CCC(N)=O)C(=O)NC(C)(C)C)NC(=O)c1c[nH]c2ccccc12 (stereo partly drawn)
inhibition [1]: 96%

Structure (SMILES): CN(Cc1ccccc1)C(=O)[C@@H](Cc1ccccc1)NC(=O)C(CC(=O)NC(CO)C(N)=O)NC(=O)c1c[nH]c2ccccc12 (stereo partly drawn)
inhibition [1]: 100%

Structure (SMILES): CN(Cc1ccccc1)C(=O)[C@@H](Cc1ccccc1)NC(=O)C(CC(=O)NCC(N)=O)NC(=O)c1c[nH]c2ccccc12 (stereo partly drawn)
inhibition [1]: 128%

Structure (SMILES): CC(O)C(NC(=O)CC(N)C(=O)N[C@H](Cc1ccccc1)C(=O)N(C)Cc1ccccc1)C(N)=O (stereo partly drawn)
inhibition [4]: inactive

Structure (SMILES): CC(=O)NCCCCC(NC(=O)c1c[nH]c2ccccc12)C(=O)N[C@H](Cc1ccccc1)C(=O)N(C)Cc1ccccc1 (stereo partly drawn)
inhibition [5]: 87%

Structure (SMILES): CN(Cc1ccccc1)C(=O)[C@@H](Cc1ccccc1)NC(=O)C(CCCCNC(=O)C(C)(C)C)NC(=O)c1c[nH]c2ccccc12 (stereo partly drawn)
inhibition [5]: 44%

Structure (SMILES): CN(Cc1ccccc1)C(=O)[C@@H](Cc1ccccc1)NC(=O)C(CCCCNC(=O)OCc1ccccc1)NC(=O)c1cc2ccccc2[nH]1 (stereo partly drawn)
inhibition [5]: 22%

Structure (SMILES): CC(=O)N[C@H](C(=O)NCCCC[C@@H](NC(=O)c1c[nH]c2ccccc12)C(=O)N[C@H](Cc1ccccc1)C(=O)N(C)Cc1ccccc1)[C@@H](C)O
inhibition [2]: inactive

Structure (SMILES): CN(Cc1ccccc1)C(=O)[C@@H](Cc1ccccc1)NC(=O)C(CCCCN)NC(=O)c1c[nH]c2ccccc12 (stereo partly drawn)
inhibition [5]: 91%

The remaining lines, values ahead:

inhibition [1]: 56%
Structure (SMILES): CN(Cc1ccccc1)C(=O)[C@@H](Cc1ccccc1)NC(=O)C(CC(=O)NC(CCC(N)=O)C(N)=O)NC(=O)c1c[nH]c2ccccc12 (stereo partly drawn)

inhibition [2]: inactive
Structure (SMILES): CC(=O)NC(CCCCNC(=O)C(NC(C)=O)C(C)O)C(=O)N[C@H](Cc1ccccc1)C(=O)N(C)Cc1ccccc1 (stereo partly drawn)

inhibition [2]: inactive
Structure (SMILES): CC(=O)NC(C(=O)NCCCCC(NC(=O)OC(C)(C)C)C(=O)N[C@H](Cc1ccccc1)C(=O)N(C)Cc1ccccc1)C(C)O (stereo partly drawn)

inhibition [4]: inactive
Structure (SMILES): CC(O)C(NC(=O)CC(NC(=O)OC(C)(C)C)C(=O)N[C@H](Cc1ccccc1)C(=O)N(C)Cc1ccccc1)C(N)=O (stereo partly drawn)

inhibition [5]: 82%
Structure (SMILES): CC(=O)NCCC(=O)NCCCCC(NC(=O)c1c[nH]c2ccccc12)C(=O)N[C@H](Cc1ccccc1)C(=O)N(C)Cc1ccccc1 (stereo partly drawn)

inhibition [2]: inactive
Structure (SMILES): CC(=O)NC(C(=O)NCCCCC(N)C(=O)N[C@H](Cc1ccccc1)C(=O)N(C)Cc1ccccc1)C(C)O (stereo partly drawn)

inhibition [5]: 98%
Structure (SMILES): CC(=O)NCC(=O)NCCCCC(NC(=O)c1c[nH]c2ccccc12)C(=O)N[C@H](Cc1ccccc1)C(=O)N(C)Cc1ccccc1 (stereo partly drawn)

inhibition [5]: 144%
Structure (SMILES): CN(C)C(=O)NCCCCC(NC(=O)c1c[nH]c2ccccc12)C(=O)N[C@H](Cc1ccccc1)C(=O)N(C)Cc1ccccc1 (stereo partly drawn)

inhibition [5]: 53%
Structure (SMILES): CN(Cc1ccccc1)C(=O)[C@@H](Cc1ccccc1)NC(=O)C(CCCCNC(=O)N1CCOCC1)NC(=O)c1c[nH]c2ccccc12 (stereo partly drawn)

IC50 (Substance-P receptor): 19 nM
Structure (SMILES): CC(=O)NC(C(=O)NCCCCC(NC(=O)c1cc2ccccc2[nH]1)C(=O)N[C@H](Cc1ccccc1)C(=O)N(C)Cc1ccccc1)[C@@H](C)O (stereo partly drawn)

inhibition [2]: inactive
Structure (SMILES): CC(=O)NC(C(=O)NCCCCC(NC(=O)c1ccccc1)C(=O)N[C@H](Cc1ccccc1)C(=O)N(C)Cc1ccccc1)C(C)O (stereo partly drawn)

IC50 (Substance-P receptor): 21 nM
Structure (SMILES): CC(=O)NC(C(=O)NCCCC(NC(=O)c1c[nH]c2ccccc12)C(=O)N[C@H](Cc1ccccc1)C(=O)N(C)Cc1ccccc1)[C@@H](C)O (stereo partly drawn)

inhibition [5]: 98%
Structure (SMILES): CC(O)C(NC(=O)OC(C)(C)C)C(=O)NCCCCC(NC(=O)c1c[nH]c2ccccc12)C(=O)N[C@H](Cc1ccccc1)C(=O)N(C)Cc1ccccc1 (stereo partly drawn)

inhibition [6]: 100%
IC50 (Substance-P receptor): 23 nM
Structure (SMILES): C[C@@H](O)C(NC(=O)CC(NC(=O)c1c[nH]c2ccccc12)C(=O)N[C@H](Cc1ccccc1)C(=O)N(C)Cc1ccccc1)C(N)=O (stereo partly drawn)

IC50 (Substance-P receptor): 54 nM
Structure (SMILES): C[C@@H](O)C(NC(=O)CC(NC(=O)c1cc2ccccc2[nH]1)C(=O)N[C@H](Cc1ccccc1)C(=O)N(C)Cc1ccccc1)C(N)=O (stereo partly drawn)
